The text below walks through data of patent US20130296278A1, “Diazeniumdiolate Derivatives” (Merck Sharp & Dohme Corp., priority 2011, published 2013).

By half-life is commonly meant the time in which the quantity being followed falls by half. Higher therefore signals slow decline.

The series can be described thus: Rate of NO release (UV absorbance decay at 248 nm in pH 7.4 buffer). In kind it is physicochemical. The settings on record: 0.25 mM diazeniumdiolate in 100 mM pH 7.4 phosphate buffer, 22° C., absorbance at 248 nm; t½=ln(2)/k. The method, then:
Compounds of the invention were evaluated for the rate of NO release using the following protocol described below.
The method described by Maragos, C. M, et al. Med. Chem. 1991, 34, 3242-3247, was followed. A 100 mM solution of pH 7.4 buffer was prepared by dissolving 626 mg of NaH2PO4.H2O and 4155 mg of Na2HPO4.7H2O in 200 mL of water. The 0.01 M solution of the individual diazeniumdiolate was prepared by dissolving the sodium diazeniumdiolate in 0.01 M sodium hydroxide solution. All solutions used were kept at room temperature. The cuvette incubator was set at 22° C. 25 μL of the 0.01 M diazeniumdiolate solution was added to a cuvette, followed by dilution with 975 μL of pH 7.4 buffer to obtain a 0.25 (25 uL of 0.01 M diluted to 1000 ul will be 0.25 mM) mM solution. The cuvette was inserted into the UV spectrometer, and its absorbance at λ=248 nm was acquired every 3 seconds.
The general first-order rate equation is: […]
The method of Kezdy, F. J.; Jaz, J.; Bruylants, A. Bull. Soc. Chim. Belg. 1958, 67, 687-706, later elaborated by Schwartz, L. M.; Gelb, R. I. Anal. Chem. 1978, 50, 1592-1594, was used to analyze the data without measuring A∞. Two equations are obtained when the measurement At is made at t and At+Δt is made at t+Δt. Dividing these two equations and rearranging the resultant equation, we arrive at
At=At+Δte^−k!+A∞(1−e^kΔt)
Plotting At against At+Δt would yield a straight line with k=−ln(slope)/Δt, A∞=intercept/(1−slope). As a result, t½=ln(2)/k.
With `CCCN(/[N+]([O-])=N/[O-])C(C)(C)C.[Na+]` [Example 1, Sodium 1-(N-tert-butyl-N-propylamino)diazen-1-ium-1,2-diolate], the half-life at 0.25 mM is 1.45 min.
`C=CCN(/[N+]([O-])=N/[O-])C(C)(C)C.[Na+]` [Example 2, Sodium 1-(N-text-butyl-N-allylamino)diazen-1-ium-1,2-diolate]: the half-life at 0.25 mM was 3.17 min.
The compound `CC(C)(C)N(CCO)/[N+]([O-])=N/[O-].[Na+]` [Example 3, Sodium 1-[N-tert-butyl-N-(2′-hydroxyethyl)amino]diazen-1-ium-1,2-diolate] gave a half-life at 0.25 mM of 3.42 min.
